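How tested: cells in 96-well plates exposed to compound for 48 hours at five concentrations. GI50: concentration for 50% inhibition of growth.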 Active and inactive are the calls of the source. Rule as the data show it: active = GI50 up to about 1.1 µM and inactive = higher.
Key:
Test in all cases: inhibition of tumour cell growth, NCI panel, 48 h
[1] = system: DMS-273
[2] = system: DLD-1
[3] = system: HOP-18
[4] = system: XF498
[5] = system: M19-MEL
[6] = system: DMS-114
[7] = system: LXFL 529
[8] = system: RXF 631
[9] = system: SNB-78

Measured: GI50

CC(C)(C)c1cc2c3c(c1)c(=O)c1cccc4c(O)c5cccc(c2=O)c5c-3c41
inactive: [1] 26.1 µM | [2] 61 µM | [3] > 100 µM | [4] 35.5 µM | [5] > 100 µM | [6] 10 µM | [7] > 100 µM

CC(=O)OCC1OC(n2ccc(=O)[nH]c2=O)C(OC(C)=O)C(OC(C)=O)C1OC(C)=O (configuration not stated)
inactive: [1] > 100 µM | [2] > 100 µM | [3] > 100 µM | [4] > 100 µM | [5] > 100 µM | [6] > 100 µM | [7] > 100 µM

CCOc1ccc(NC(=O)CC2C(=O)Nc3ccccc3S2(=O)=O)cc1 (configuration not stated)
inactive: [2] > 100 µM | [3] > 100 µM | [4] 29.8 µM | [5] > 100 µM | [6] > 100 µM | [8] > 100 µM | [9] 90.4 µM | [7] > 100 µM

COc1c(C)c(O)c2c(c1C)OC(c1ccccc1)CC2=O (configuration not stated)
inactive: [1] 59.6 µM | [2] 66.1 µM | [3] 25 µM | [5] 38.1 µM | [6] 40.8 µM | [9] > 100 µM | [7] 35.2 µM

COCCOc1cc(C)cc(/C=C(C)/C=C/C2=C(C)CCCC2(C)C)n1
inactive: [1] 48.5 µM | [2] > 100 µM | [3] > 100 µM | [4] 43.6 µM | [5] 32.8 µM | [6] 28.1 µM | [8] 59.8 µM | [9] 81.3 µM | [7] 45.8 µM

COc1cccc(/C(Cl)=C(\C=O)c2cccc(OC)c2)c1
inactive: [1] 8.17 µM | [2] 8.43 µM | [3] 16.4 µM | [4] 13.8 µM | [5] 12.7 µM | [6] 3.12 µM | [9] 4.24 µM | [7] 5.65 µM

COC(=O)[C@@]12C3=NO[C@]1(C(=O)OC)C(O[Si](C)(C)C(C)(C)C)[C@@H](OC(C)=O)[C@@H](OC(C)=O)[C@@H]2[C@@H](OCc1ccccc1)CC3 (some centres not stated)
inactive: [1] 6.05 µM | [2] > 30.5 µM | [3] > 100 µM | [4] 15.8 µM | [5] > 100 µM | [6] 6.35 µM | [9] > 96.2 µM | [7] 4.45 µM

FC(F)(F)c1nc(-c2ccccc2)oc1Sc1nnc(Sc2oc(-c3ccccc3)nc2C(F)(F)F)s1
inactive: [1] 46.8 µM | [2] 36.4 µM | [3] > 100 µM | [4] 9.06 µM | [5] 23.2 µM | [6] 6.15 µM | [8] 36.9 µM | [9] 34.1 µM | [7] 27.8 µM

COc1ccc(/C=C/C(=O)c2sc(NC(=S)NC(=O)c3ccccc3F)nc2C)cc1OC
inactive: [1] > 100 µM | [2] > 100 µM | [3] 22.8 µM | [5] > 100 µM | [6] > 100 µM | [9] > 100 µM

CC(=O)NC1=C(NCCO)C(=O)c2ccccc2C1=O
inactive: [1] > 50 µM | [2] > 50 µM | [4] > 50 µM | [5] 9.79 µM | [9] > 50 µM | [7] > 50 µM

COc1ccc(N(C)CN(C)c2nc(N(C)C)nc(N(C)C)n2)cc1
inactive: [1] > 100 µM | [2] > 100 µM | [3] > 100 µM | [5] > 100 µM | [6] > 100 µM | [9] > 100 µM | [7] > 100 µM

CC1=C2CCCC2C/C(=N/Nc2ccc([N+](=O)[O-])cc2[N+](=O)[O-])CC1 (configuration not stated)
inactive: [1] > 100 µM | [3] > 100 µM | [4] > 100 µM | [5] > 100 µM | [6] > 100 µM | [8] > 100 µM | [7] > 100 µM

O=C1c2cccc3cccc(c23)C(=O)N1CCCN1CCN(CCCN2C(=O)c3cccc4cccc(c34)C2=O)CC1
inactive: [1] > 100 µM | [2] > 100 µM | [3] > 100 µM | [4] > 100 µM | [5] > 100 µM | [6] > 100 µM | [8] > 100 µM | [9] > 100 µM | [7] > 100 µM

NNC(=O)C(=O)NN=C(C(Cl)(Cl)CO)C(Cl)(Cl)CO
inactive: [1] 65.9 µM | [2] 22.6 µM | [3] > 100 µM | [4] 16.6 µM | [5] 20.1 µM | [8] 21.3 µM | [9] 21.5 µM | [7] 28.2 µM

COc1ccc(C)cc1-c1ccc(-c2cc(C)ccc2OC)o1
inactive: [1] > 100 µM | [2] > 100 µM | [5] 54.6 µM | [6] > 100 µM | [8] > 100 µM | [9] > 100 µM | [7] > 100 µM

C=C[C@H]1C=Cc2c(OC)cccc2[C@@H]1COP1(=S)NC(C)C(c2ccccc2)O1 (some centres not stated)
inactive: [1] 57.9 µM | [2] > 100 µM | [3] > 100 µM | [4] > 100 µM | [5] 75 µM | [6] 32.9 µM | [9] > 100 µM | [7] 48.5 µM

O=c1/c(=C/c2ccccc2[N+](=O)[O-])sc2nnc(-c3ccco3)n12
inactive: [1] 28.7 µM | [2] 29.2 µM | [3] 25.1 µM | [4] 18.4 µM | [5] 19.5 µM | [6] 20 µM | [9] 25.7 µM | [7] 19 µM

COc1cc(/C=C/c2ccc(Br)cc2)cc(OC)c1OC
inactive: [1] 4.91 µM | [2] 6.93 µM | [3] 6.61 µM | [4] 20.2 µM | [5] 13.9 µM | [6] 10.4 µM | [8] 9.77 µM | [7] 16.1 µM

COC(=O)[C@]1(C)CCC[C@@]2(C)C1CCC1=C[C@@]3(C(C)C)CC[C@]12OO3 (some centres not stated)
inactive: [1] 25.7 µM | [2] 24.2 µM | [5] 25.1 µM | [8] 22.6 µM | [9] 54.3 µM | [7] 23.2 µM

COc1c(O)c2ccccc2c2cc(O)ccc12
inactive: [1] 6.65 µM | [2] 8.79 µM | [3] 1.75 µM | [4] 2.69 µM | [5] 2.01 µM | [6] 1.97 µM | [9] 15.5 µM | [7] 2.59 µM

Cc1ccc2c(c1)NC(=O)C(N=[N+]=[N-])(c1ccccc1)C2=O (configuration not stated)
inactive: [1] 12.3 µM | [2] 43 µM | [3] 26.1 µM | [4] 24.7 µM | [5] 19.7 µM | [6] 34.3 µM | [9] 28.1 µM | [7] 24 µM

C[C@]12CCC(=O)C=C1CC[C@@H]1C2CC[C@]2(C)Nc3c(cnn3-c3ccccc3)CC12 (some centres not stated)
inactive: [1] > 100 µM | [2] > 100 µM | [4] > 100 µM | [5] > 100 µM | [6] > 100 µM | [8] 96.8 µM | [9] > 100 µM | [7] > 100 µM

COc1nc(C(=O)O)c(Cl)c(OC)c1Cl
inactive: [2] > 100 µM | [5] > 100 µM | [6] > 100 µM

CCOC(=O)C(=O)Nc1ccccc1OCC
inactive: [2] > 100 µM | [3] > 100 µM | [4] > 100 µM | [5] > 100 µM | [6] > 100 µM | [9] > 100 µM | [7] > 100 µM
